Experimental data published in ChEMBL document CHEMBL1201862, “PubChem BioAssay data set” (2004).
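Values below derive from 48-hour exposures of cells grown in 96-well plates, with endpoints linearly interpolated between the two concentrations bracketing the appropriate inhibition level. GI50 = concentration required for 50% inhibition of growth.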 Active and inactive are the calls of the source. No stated cut-off is given here; in the data, active = GI50 up to about 1.1 µM and inactive = higher.

Key:
Assay in all cases: inhibition of tumour cell growth, NCI panel, 48 h
A549 = tested on: A549
LOX IMVI = tested on: LOX IMVI
MDA-N = tested on: MDA-N
A498 = tested on: A498
OVCAR-3 = tested on: OVCAR-3
SF-295 = tested on: SF-295
BT-549 = tested on: BT-549
NCI-H23 = tested on: NCI-H23
UACC-62 = tested on: UACC-62
NCI-H226 = tested on: NCI-H226
UO-31 = tested on: UO-31
HOP-62 = tested on: HOP-62
SK-MEL-5 = tested on: SK-MEL-5
HCT-116 = tested on: HCT-116
HCC 2998 = tested on: HCC 2998
TK-10 = tested on: TK-10
EKVX = tested on: EKVX
RXF 393 = tested on: RXF 393
T47D = tested on: T47D

Measured: GI50

CC(C)CNCCc1ccccn1
inactive: A549 > 100 µM | LOX IMVI > 100 µM | MDA-N > 100 µM | A498 > 100 µM | OVCAR-3 > 100 µM | SF-295 > 100 µM | BT-549 > 100 µM | NCI-H23 > 100 µM | UACC-62 > 100 µM | NCI-H226 > 100 µM | UO-31 > 100 µM | HOP-62 > 100 µM | SK-MEL-5 > 100 µM | HCT-116 > 100 µM | HCC 2998 > 100 µM | TK-10 > 100 µM | EKVX > 100 µM | RXF 393 > 100 µM

COc1ccc2oc(=N)c(C(=O)NCc3ccccc3)cc2c1
inactive: A549 34 µM | LOX IMVI 38.6 µM | MDA-N 19.8 µM | A498 15.2 µM | OVCAR-3 18.8 µM | SF-295 24.7 µM | BT-549 17.7 µM | NCI-H23 18.1 µM | NCI-H226 22.7 µM | UO-31 46.6 µM | T47D 15 µM | HOP-62 21.2 µM | SK-MEL-5 27.9 µM | HCT-116 30.1 µM | TK-10 22.6 µM | EKVX 31.2 µM | RXF 393 16.8 µM

Cc1ccc(C2NC(=O)c3ccccc3N2)c(C)c1 (configuration not stated)
inactive: A549 5.65 µM | LOX IMVI 4.76 µM | A498 5.04 µM | OVCAR-3 1.16 µM | SF-295 2.15 µM | NCI-H23 7.14 µM | UACC-62 1.26 µM | NCI-H226 6.1 µM | UO-31 6.81 µM | T47D 6.01 µM | HOP-62 5.13 µM | HCT-116 2.39 µM | HCC 2998 4.52 µM | TK-10 7.33 µM | EKVX 8.17 µM | RXF 393 3.91 µM
active: MDA-N 0.174 µM | SK-MEL-5 0.951 µM

CC(NC(=O)C(Cc1ccc(OC(=O)c2ccccc2)cc1)NC(=O)OC(C)(C)C)C(=O)NCC(=O)NC(Cc1ccccc1)NC(=O)OCc1ccccc1 (configuration not stated)
inactive: A549 > 100 µM | LOX IMVI > 100 µM | MDA-N > 100 µM | A498 28.5 µM | OVCAR-3 > 100 µM | SF-295 > 100 µM | BT-549 > 100 µM | NCI-H23 > 100 µM | UACC-62 > 100 µM | NCI-H226 > 100 µM | UO-31 > 100 µM | T47D > 100 µM | HOP-62 > 100 µM | SK-MEL-5 71.6 µM | HCT-116 > 100 µM | TK-10 > 100 µM | EKVX > 100 µM | RXF 393 > 100 µM

NS(=O)(=O)c1ccc(NNC(=O)c2cccc3c(=O)c4ccccc4[nH]c23)cc1
inactive: A549 > 100 µM | LOX IMVI 30.1 µM | MDA-N > 100 µM | OVCAR-3 56.9 µM | SF-295 91 µM | BT-549 62.4 µM | NCI-H23 > 100 µM | UACC-62 88.5 µM | NCI-H226 > 100 µM | UO-31 45.1 µM | T47D 48.4 µM | HOP-62 > 100 µM | SK-MEL-5 34 µM | HCT-116 52.1 µM | HCC 2998 > 100 µM | TK-10 > 100 µM | EKVX 43.6 µM | RXF 393 60.4 µM

COc1ccc(Nc2nc3cc(C(F)(F)F)ccc3nc2C(=O)O)cc1OC
inactive: A549 41.3 µM | LOX IMVI 28.9 µM | A498 30.7 µM | OVCAR-3 17.5 µM | SF-295 10.5 µM | BT-549 26.3 µM | NCI-H23 26.4 µM | UACC-62 23.7 µM | NCI-H226 16.4 µM | UO-31 28.2 µM | T47D 27.7 µM | HOP-62 35 µM | SK-MEL-5 22.4 µM | HCT-116 27.4 µM | HCC 2998 35.7 µM | TK-10 34.4 µM | EKVX 30.8 µM | RXF 393 23.3 µM

Clc1ccc(-c2c3nc(c(-c4ccc(Cl)cc4)c4ccc([nH]4)c(-c4ccc(Cl)cc4)c4nc(c(-c5ccc(Cl)cc5)c5ccc2[nH]5)C=C4)C=C3)cc1
inactive: A549 > 100 µM | LOX IMVI > 100 µM | OVCAR-3 > 100 µM | SF-295 > 100 µM | BT-549 > 100 µM | NCI-H23 > 100 µM | UACC-62 > 100 µM | UO-31 > 100 µM | T47D > 100 µM | HOP-62 > 100 µM | SK-MEL-5 > 100 µM | HCC 2998 > 100 µM | TK-10 > 100 µM | EKVX > 100 µM

COc1cc(-c2coc3c(OC)c(OC4OC(CO)C(O)C(O)C4O)c(OC)cc3c2=O)cc(OC)c1C (configuration not stated)
inactive: A549 7.13 µM | LOX IMVI 3.37 µM | MDA-N 2.21 µM | OVCAR-3 7.26 µM | SF-295 11.7 µM | BT-549 4.04 µM | NCI-H23 3.98 µM | UACC-62 4.42 µM | NCI-H226 25.7 µM | UO-31 4.42 µM | T47D 9.14 µM | HOP-62 15.2 µM | SK-MEL-5 12.1 µM | HCT-116 1.69 µM | HCC 2998 3.89 µM | TK-10 18.4 µM | EKVX 11.8 µM | RXF 393 2.56 µM

Cc1ccc(C(=O)N/N=C(\N=N\c2ccccc2C(=O)O)c2ccc(N(C)C)cc2)cc1
inactive: A549 98.2 µM | LOX IMVI > 100 µM | MDA-N 19 µM | OVCAR-3 22.2 µM | SF-295 41.6 µM | BT-549 > 100 µM | NCI-H23 > 100 µM | NCI-H226 > 100 µM | UO-31 80.4 µM | SK-MEL-5 > 100 µM | HCT-116 > 100 µM | HCC 2998 71.4 µM | TK-10 > 100 µM | EKVX 75.2 µM

Fc1cc(-c2cc(-c3ccccc3)n[nH]2)c(Cl)cc1Cl
inactive: A549 > 100 µM | LOX IMVI 99.1 µM | MDA-N > 100 µM | OVCAR-3 > 100 µM | SF-295 > 100 µM | BT-549 > 100 µM | NCI-H23 > 100 µM | NCI-H226 50.7 µM | UO-31 > 100 µM | T47D > 100 µM | HOP-62 64.4 µM | SK-MEL-5 > 100 µM | HCT-116 > 100 µM | TK-10 > 100 µM | EKVX 61.7 µM | RXF 393 > 100 µM

Nc1nc2ccc(Sc3ccc4nc(N)[nH]c(=O)c4c3)cc2c(=O)[nH]1
inactive: A549 > 100 µM | OVCAR-3 > 100 µM | SF-295 59.2 µM | BT-549 > 100 µM | NCI-H23 > 100 µM | UACC-62 > 100 µM | NCI-H226 14.1 µM | UO-31 > 100 µM | T47D > 100 µM | SK-MEL-5 > 100 µM | HCT-116 > 100 µM | HCC 2998 > 100 µM | TK-10 > 100 µM | EKVX > 100 µM | RXF 393 > 100 µM

O=C1NCC2(CCN(Cc3ccccc3)CC2)N1
inactive: A549 > 100 µM | LOX IMVI > 100 µM | MDA-N > 100 µM | OVCAR-3 > 100 µM | SF-295 > 100 µM | BT-549 > 100 µM | NCI-H23 > 100 µM | UACC-62 > 100 µM | NCI-H226 > 100 µM | UO-31 > 100 µM | T47D > 100 µM | HOP-62 > 100 µM | SK-MEL-5 > 100 µM | HCT-116 > 100 µM | HCC 2998 > 100 µM | TK-10 > 100 µM | EKVX > 100 µM | RXF 393 > 100 µM

O=C(c1cccs1)N(C(=O)N1CCC(c2ccccc2)CC1)c1ccccc1
inactive: LOX IMVI 41.5 µM | MDA-N 43.8 µM | A498 51.4 µM | OVCAR-3 53.6 µM | SF-295 42.7 µM | BT-549 27 µM | NCI-H23 40.6 µM | UACC-62 50.6 µM | NCI-H226 34 µM | UO-31 18 µM | T47D 26.1 µM | HOP-62 36 µM | SK-MEL-5 16.8 µM | HCT-116 42.5 µM | TK-10 67 µM | EKVX 7.67 µM | RXF 393 16.8 µM

CN(CCNC(=S)c1cn(C)c2c1ccc1ccccc12)CCNC(=S)c1cn(C)c2c1ccc1ccccc12
inactive: A549 64.3 µM | LOX IMVI 18.5 µM | OVCAR-3 > 100 µM | SF-295 99.3 µM | BT-549 > 100 µM | NCI-H23 48 µM | UACC-62 > 100 µM | UO-31 32.1 µM | T47D 3.74 µM | HOP-62 > 100 µM | SK-MEL-5 > 100 µM | HCT-116 24.4 µM | HCC 2998 16.6 µM | TK-10 > 100 µM | EKVX 67.9 µM | RXF 393 2.05 µM

O=C1/C(=C/c2cccc(Br)c2)CCc2ccccc21
inactive: A549 16.4 µM | LOX IMVI 12.8 µM | MDA-N 10.8 µM | OVCAR-3 15.2 µM | SF-295 15.2 µM | BT-549 9.53 µM | NCI-H23 15.8 µM | UACC-62 10.5 µM | NCI-H226 15.2 µM | UO-31 13.8 µM | HOP-62 16 µM | HCT-116 7.69 µM | TK-10 16.5 µM | EKVX 17.6 µM

Nc1n[nH]c2nc3ccccc3nc12 [QUINOXALINE1]
inactive: A549 61.9 µM | LOX IMVI 47 µM | MDA-N > 100 µM | A498 33.7 µM | OVCAR-3 62.4 µM | SF-295 > 100 µM | BT-549 64.6 µM | NCI-H23 > 100 µM | UACC-62 45 µM | NCI-H226 91.8 µM | UO-31 39.6 µM | HOP-62 61 µM | SK-MEL-5 > 100 µM | HCT-116 31 µM | HCC 2998 > 100 µM | TK-10 70.1 µM | EKVX 73.3 µM | RXF 393 27.9 µM
